In US8088817B2, “Pyrrole derivative having, as substituents, ureido group, aminocarbonly group and bicyclic group which may have substituent” (Santen Pharmaceutical Co., Ltd., priority 2008, dated 2012):

system: TNF-α-induced IL-6 production in normal human skin fibroblast-derived CCD-1059Sk cells; assay: Test for measurement of inhibitory activity against TNF-α-induced IL-6 production in CCD-1059Sk cells (HTRF Human IL-6 kit); format: cell-based; settings: test compound at 10 μM; TNF-α-stimulated CCD-1059Sk cells, 16 hours; inhibition ratio which is 100% or more is indicated to be 100%
Protocol: 1. Test for Measurement of Inhibitory Activity Against IL-6 Production
An inhibitory effect on TNF-α-induced IL-6 production in normal human skin fibroblast-derived CCD-1059Sk cells (ATCC No. CRL-2072) was evaluated. The amount of IL-6 was determined by the homogeneous time-resolved fluorescence method using HTRF™ Human IL-6 kit (Cat. No. 62IL6PEB, manufactured by CIS-Bio international, Inc.). Specific test methods will be described below.
(Preparation of Test Compound Solution)
After a test compound was dissolved in dimethyl sulfoxide, the resulting solution was diluted with D-MEM medium containing 0.1% heat-inactivated fetal bovine serum, 0.1 mM MEM non-essential amino acid solution, 100 U/mL penicillin and 100 μg/mL streptomycin (hereinafter referred to as “medium”), whereby a 40 μM test compound solution was prepared.
(Test Method and Measurement Method)
1) CCD-1059Sk cells prepared at a density of 3×10^5 cells/mL were inoculated in a 384-well plate in an amount of 10 μL per well such that the cell density was 3×10^3 cells/well.
2) After the plate was incubated at 37° C. for several hours in a CO2 incubator, 5 μL of the test compound solution was added to each well.
3) After the plate was incubated at 37° C. for 1 hour in a CO2 incubator, 5 μL of a 40 ng/mL TNF-α solution was added to each well.
4) After the plate was incubated at 37° C. for 16 hours in a CO2 incubator, 10 μL of a cryptate-labeled anti-IL-6 antibody and an XL665-labeled anti-IL-6 antibody containing potassium fluoride were added to each well.
5) After the plate was incubated at room temperature for several hours, a fluorescence intensity ratio (665 nm/620 nm) was determined for each well using a multimode plate reader Analyst™ HT (manufactured by Molecular Device Corporation) and Criterion Host software version 2.00 (manufactured by Molecular Device Corporation), and then, the amount of IL-6 was calculated.
6) The same procedures as in the above 1) to 5) were performed except that 0.4% dimethyl sulfoxide was added in place of the test compound, and the obtained result was designated as the control.
7) The same procedures as in the above 1) to 5) were performed except that 0.4% dimethyl sulfoxide and the medium were added in place of the test compound and the TNF-α solution, respectively, and the obtained result was designated as the background.
(Calculation Formula of IL-6 Production Inhibition Ratio)
An IL-6 production inhibition ratio (%) was calculated from the following equation. IL-6 Production Inhibition Ratio(%)=100×{1−[(Amount of IL-6 for Test Compound)−(Amount of IL-6 for Background)]/[(Amount of IL-6 for Control)−(Amount of IL-6 for Background)]} (Evaluation Results)

In order of rising “IL-6 production inhibition ratio (%)” value:
1. NC(=O)Nc1[nH]c(-c2ccc3occc3c2)cc1C(N)=O [Compound No. 1-8, 2-Aminocarbonylamino-5-(benzofuran-5-yl)pyrrole-3-carboxamide]  86%
2. NC(=O)Nc1[nH]c(-c2ccc3ccccc3c2)cc1C(N)=O [Compound No. 1-1, 2-Aminocarbonylamino-5-(2-naphthyl)pyrrole-3-carboxamide]  90%
3. NC(=O)Nc1[nH]c(-c2ccc3sccc3c2)cc1C(N)=O [Compound No. 1-6, 2-Aminocarbonylamino-5-(benzothiophen-5-yl)pyrrole-3-carboxamide]  95%
4. NC(=O)Nc1[nH]c(-c2cccc3c2OCCO3)cc1C(N)=O [Compound No. 1-12, 2-Aminocarbonylamino-5-(2,3-dihydro-1,4-benzodioxin-5-yl)pyrrole-3-carboxamide]  97%
5. NC(=O)Nc1[nH]c(-c2cc3ccccc3o2)cc1C(N)=O [Compound No. 1-5, 2-Aminocarbonylamino-5-(benzofuran-2-yl)pyrrole-3-carboxamide]  98%
6. Cc1c(-c2cc(C(N)=O)c(NC(N)=O)[nH]2)sc2ccccc12 [Compound No. 1-15, 2-Aminocarbonylamino-5-(3-methylbenzothiophen-2-yl)pyrrole-3-carboxamide]  98%

For `NC(=O)Nc1[nH]c(-c2cccc3c2OCC3)cc1C(N)=O` [Compound No. 3-1, 2-Aminocarbonylamino-5-(2,3-dihydrobenzofuran-7)pyrrole-3-carboxamide], the “IL-6 production inhibition ratio (%)” value was at least 100%.
